Source: patent US11633370B2, “Use of scavengers of reactive gamma-ketoaldehydes to extend cell lifespan and healthspan” (Vanderbilt University, priority 2016, dated 2023)

Tests used:
[1] = system: VC199 (SIR-2.1 deficient strain); test: F3-IsoP quantification by GC/MS, VC199; type: in vivo, C. elegans; conditions: any dose of SA tested, Day 15
Source text: One of the major stimuli for activation of sirtuins is oxidative stress. […] Indeed, the mitochondrial antioxidant manganese superoxide dismutase (MnSOD) has been identified as one of the major protein targets that is deacetylated by sirtuin isoforms, with deacetylation enhancing the enzymatic activity of MnSOD [60]. If SA indeed preserves SIR-2.1 enzymatic function in vivo, the present inventors hypothesized that SA treatment would dose-dependently decrease biomarkers of oxidant injury in a SIR-2.1-dependent manner. To quantify oxidant injury, the present inventors measured F3-isoprostanes (F3-IsoPs). […] To further characterize SA's ability to preserve SIR-2.1 function, the present inventors assessed acetylation of MnSOD at Lys 122.
F3-Isoprostanes were quantified from SA-treated worms a gas-chromatography-negative ion chemical ionization-mass spectrometry (GC-NICI-MS) approach. […]
Samples were spiked with 248 pg of deuterated internal standards, [^2H4]-15-F2t-IsoP, quantified and calibrated by the method of Milne et al. and acidified to pH<3 with HCl in preparation for further Separation Phase Extraction (SPE). […]
Eluates were dried under nitrogen and F3—IsoPs and resuspended in MeOH for separation by Thin Layer Chromatography (TLC). […] Deuterated F2-IsoP standard was measured at m/z 573. F3—IsoP was measured at m/z 567. […]

N2 WT C. elegans = test: Oxygen consumption rate of whole worms, N2; type: in vivo; conditions: whole worms over several days; p>0.05
Source text: Mitochondria lie at the center of aging biology, playing crucial roles in energy production, carbon substrate metabolism, apoptosis regulation, and redox balance and signaling. Since sirtuins play a major role in regulating mitochondrial function, the present inventors next wanted to investigate whether SA was exerting any of its effects via protection of mitochondrial processes. To investigate SA's effects on mitochondrial respiration, the present inventors administered SA to WT N2 (FIG. 5A) and non-functional SIR-2.1 mutant worms (FIG. 5B) and measured oxygen consumption rate (OCR) in whole worms over several days. […] The present inventors also examined the effect of SA treatment on mitochondrial DNA (mtDNA) integrity.
Oxygen consumption rate for whole C. elegans was measured using a Seahorse Bioscience XF^e96 Analyzer. Worms were harvested from Day 0, 2, and 15 colonies maintained on FUDR containing SA-OP50-seeded NGM plates by washing in M9 medium, followed by floatation on an ice-cold 60% w/v sucrose gradient to segregate clean bacteria-free adult worms from bacterial debris. Worms were seeded at 1,000 worms/well in M9. After 20 min equilibration, a 2-min measurement was performed to obtain basal OCR for all experimental conditions and strains.

Compound: NCc1ccccc1O [SA, salicylamine]
- F3-IsoP levels [1]: did not significantly decrease
- mitochondrial oxygen consumption rate (OCR) (N2 WT C. elegans): no effect
